Results from US9108950B2, “1-pyrazolyl-3-(4-((2-anilinopyrimidin-4-yl)oxy)napththalen-1-yl) ureas as p38 MAP kinase inhibitors” (Respivert Ltd., priority 2011, dated 2015).

Columns and labels:
[1] = test system: Differentiated U937 cells; assay: Cell viability: MTT assay; type: cell-based, human; conditions: 1 μg/mL
Protocol: Differentiated U937 cells were pre-incubated with each test compound (final concentration 1 μg/mL or 10 μg/mL in 200 μL media indicated below) under two protocols: the first for 4 hr in 5% FCS RPMI1640 media and the second in 10% FCS RPMI1640 media for 24 h. The supernatant was replaced with new media (200 μL) and MTT stock solution (10 μL, 5 mg/mL) was added to each well. After incubation for 1 hr the media were removed, DMSO (200 μL) was added to each well and the plates were shaken lightly for 1 hr prior to reading the absorbance at 550 nm. The percentage loss of cell viability was calculated for each well relative to vehicle (0.5% DMSO) treatment. Consequently an apparent increase in cell viability for drug treatment relative to vehicle is tabulated as a negative percentage.

Cigarette Smoke Model = assay: Cigarette smoke model; type: in vivo, A/J mice; conditions: 1.75 μg/mouse (35 μL, bid, i.n.)
Protocol: A/J mice (males, 5 weeks old) were exposed to cigarette smoke (4% cigarette smoke, diluted with air) for 30 min/day for 11 days using a Tobacco Smoke Inhalation Experiment System for small animals (Model SIS-CS; Sibata Scientific Technology, Tokyo, Japan). […] At 12 hr after the last dosing, each of the animals was anesthetized, the trachea cannulated and bronchoalveolar lavage fluid (BALF) was collected. The numbers of alveolar macrophages and neutrophils were determined by FACS analysis (EPICS® ALTRA II, Beckman Coulter, Inc., Fullerton, Calif., USA) using anti-mouse MOMA2 antibody (macrophage) or anti-mouse 7/4 antibody (neutrophil). BALF was centrifuged and the supernatant was collected. The level of keratinocyte chemoattractant (KC; CXCL1) in BALF was quantitated using a Quentikine® mouse KC ELISA kit (R&D systems, Inc., Minneapolis, Minn., USA).

[2] = test system: LPS-induced neutrophil accumulation; assay: LPS-induced neutrophil accumulation in mice; type: in vivo, Balb/c mice; conditions: 1.75 μg/mouse
Protocol: […] At T=0, mice were placed into an exposure chamber and exposed to LPS (7.0 mL, 0.5 mg/mL solution in PBS) for 30 min). After a further 8 hr the animals were anesthetized, their tracheas cannulated and BALF extracted by infusing and then withdrawing from their lungs 1.0 mL of PBS via the tracheal catheter. Total and differential white cell counts in the BALF samples were measured using a Neubaur haemocytometer. Cytospin smears of the BALF samples were prepared by centrifugation at 200 rpm for 5 min at RT and stained using a DiffQuik stain system (Dade Behring). Cells were counted using oil immersion microscopy. Data for neutrophil numbers in BAL are shown as mean±S.E.M. (standard error of the mean). The percentage inhibition of neutrophil accumulation was calculated for each treatment relative to vehicle treatment.

For `COCC(=O)Nc1cc(Oc2ccc(NC(=O)Nc3cc(C(C)(C)C)nn3-c3ccc(C)cc3)c3ccccc23)ccn1` [Reference Compound, N-(4-(4-(3-(3-tert-butyl-1-p-tolyl-1H-pyrazol-5-yl)ureido)naphthalen-1-yloxy)pyridin-2-yl)-2-methoxyacetamide, reference compound], the “MTT Assay Cell viability in d-U937 Cells” value ([1]; 4 h) was “−ve (−ve and +ve indicate the value is below and above respectively, the no significant effect threshold defined as 30% inhibition at 1 μg/mL at the time point indicated.)” and the “MTT Assay Cell viability in d-U937 Cells” value ([1]; 24 h) was “+ve (−ve and +ve indicate the value is below and above respectively, the no significant effect threshold defined as 30% inhibition at 1 μg/mL at the time point indicated.)”.
For `CCC(=O)O[C@]1(C(=O)SCF)[C@H](C)C[C@H]2[C@@H]3C[C@H](F)C4=CC(=O)C=C[C@]4(C)[C@@]3(F)[C@@H](O)C[C@@]21C` [Fluticasone Propionate, fluticasone propionate, reference compound], the “macrophage accumulation into airways” value (Cigarette Smoke Model) was “did not inhibit”, the “neutrophil accumulation into airways” value (Cigarette Smoke Model) was “did not inhibit” and the “inhibition of LPS-induced neutrophil accumulation” value [2] was > 80%.
